Target: T1, AURKA (Homo sapiens, UniProt O14965)
T1 sequence (O14965 1-403): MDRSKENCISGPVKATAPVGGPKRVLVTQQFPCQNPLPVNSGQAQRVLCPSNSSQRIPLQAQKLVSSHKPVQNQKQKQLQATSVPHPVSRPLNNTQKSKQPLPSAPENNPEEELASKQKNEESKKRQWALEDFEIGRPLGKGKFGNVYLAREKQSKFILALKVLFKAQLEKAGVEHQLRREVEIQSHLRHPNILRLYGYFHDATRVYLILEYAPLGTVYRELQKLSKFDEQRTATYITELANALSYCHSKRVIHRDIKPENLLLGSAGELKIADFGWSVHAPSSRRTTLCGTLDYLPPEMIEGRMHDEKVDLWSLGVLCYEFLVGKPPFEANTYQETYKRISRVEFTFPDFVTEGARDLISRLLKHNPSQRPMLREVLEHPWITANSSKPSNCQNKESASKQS
Test: LC-MS/MS proteome profiling
Type: cell-based
Design: endogenous in cells; host or cells: IMR-32; key to Significant (3h SK5527vs3h DMSO) FDR0 05 / Significant (24h SK5527vs24h DMSO) FDR0 05: +: Statistical significance for differential regulation was set to a false discovery rate (FDR) of < 0.05 and |log2FC| = 2
Method: IMR-32 cells were seeded in T-25 flasks at a density of 1.7 million cells/flask and treated the next day with DMSO (negative control), SK5527 (500 nM) or MK-5108 (500 nM) for 3 or 24 h (data for MK-5108 not discussed in this manuscript). Cell pellets were harvested at the respective time points, lysed, and the concentration of the obtained protein lysates measured as previously described. Details on further sample preparation, LC–MS/MS, and data analysis can be found in the Supporting Information. The LC–MS/MS proteomics data have been deposited to the ProteomeXchange Consortium via the PRIDE partner repository with the data set identifier PXD061539.
Supplementary Methods 1 – LC-MS/MS proteomics
From each sample, 100 µg of protein was isolated, the volumes were equalized with water and SDS and TEAB were added to a final concentration of 5% and 50 mM, respectively. Proteins were reduced and alkylated by addition of 10 mM Tris(2-carboxyethyl)phosphine hydrochloride and 40 mM chloroacetamide and incubation for 30 minutes at 25°C in the dark. Phosphoric acid was added to a final concentration of 1.2%, and samples were subsequently diluted 7-fold with binding buffer containing 90% methanol in 100 mM TEAB, pH 7.55. The samples were loaded on the 96-well S-Trap™ plate (Protifi), placed on top of a deepwell plate, and centrifuged for 2 min at 1,500 x g at RT. After protein binding, the S-trap™ plate was washed three times by adding 200 µl binding buffer and centrifugation for 2 min at 1,500 x g at RT. A new deepwell receiver plate was placed below the 96-well S-Trap™ plate and 50 mM TEAB containing trypsin (1/100, w/w) was added for digestion overnight at 37°C.
Using centrifugation for 2 min at 1,500 x g, peptides were eluted in three steps, first with 80 µl 50 mM TEAB, then with 80 µl 0.2% formic acid (FA) in water and finally with 80 µl 0.2% FA in water/acetonitrile (ACN) (50/50, v/v). Eluted peptides were dried completely by vacuum centrifugation.
Peptides were re-dissolved in 20 µl loading solvent A (0.1% trifluoroacetic acid in water/acetonitrile (ACN) (99.5:0.5, v/v)) of which 2 µl of sample was injected for LC-MS/MS analysis on an Ultimate 3000 ProFlow nanoLC system in-line connected to a Orbitrap Exploris 240 mass spectrometer (Thermo) equipped with pneu-Nimbus dual ion source (Phoenix S&T). Trapping was performed at 20 μl/min for 2 min in loading solvent A on a PepMap™ Neo Trap column (Thermo scientific, 300 μm internal diameter (I.D.), 5 μm beads). The peptides were separated on a 250 mm Odyssey Ultimate, 1.7µm C18, 75 µm inner diameter (Ionopticks) kept at a constant temperature of 45°C. Peptides were eluted by a gradient reaching 26,4 % MS solvent B (0.1% FA in acetonitrile) after 80 min, 44% MS solvent B at 95 min, 56% MS solvent B at 100min followed by a 5-minutes wash at 56% MS solvent B and re-equilibration with MS solvent A (0.1% FA in water). The flow rate was set to 250 nl/min. The mass spectrometer was operated in data-independent mode, automatically switching between MS and MS/MS acquisition. Full-scan MS spectra ranging from 375-1500 m/z with a normalized target value of 300%, a maximum fill time of 25 ms and a resolution at of 60,000 were followed by 30 quadrupole isolations with a precursor isolation width of 10 m/z for HCD fragmentation at an NCE of 30% after filling the trap at a normalized target value of 2000% for maximum injection time of 45 ms. MS2 spectra were acquired at a resolution of 15,000 with a scan range of 200-1800 m/z in the Orbitrap analyser without multiplexing. The isolation intervals were set from 400 – 900 m/z with a width of 10 m/z using window placement optimization. The polydimethylcyclosiloxane background ion at 445.120028 Da was used for internal calibration (lock mass) and QCloud has been used to control instrument longitudinal performance during the project.
Analysis of the mass spectrometry data was performed in DiaNN (version 1.9). Precursor false discovery rate was […]
set at 1%. […]

Cc1cc(Nc2ccc(F)c(CC3(C(=O)N4CCC(F)(CN5CCN(c6ccc(N7CCC(=O)NC7=O)cn6)CC5)CC4)CCN(Cc4cccc(Cl)c4F)CC3)n2)n[nH]1 [SK5527]
Significant (3h SK5527vs3h DMSO) FDR0 05 (IMR-32, 3h): + | logFC (3h SK5527vs3h DMSO) (IMR-32, 3h): -3.27 | Significant (24h SK5527vs24h DMSO) FDR0 05 (IMR-32, 24h): + | logFC (24h SK5527vs24h DMSO) (IMR-32, 24h): -3.1 | logFC AURKA (SK5527 vs DMSO (3h)): -3.27 | logFC AURKA (SK5527 vs DMSO (24h)): -3.1

— paper PMC12670405, “Second-Generation AURKA-Targeting PROTACs: Structural Optimization toward in Vivo Degradation in Neuroblastoma” (Journal of Medicinal Chemistry, 2025)
